The results in this text go back to ChEMBL document CHEMBL3856191, “Structural modifications at the 6-position of thieno[2,3-d]pyrimidines and their effects on potency at FLT3 for treatment of acute myeloid leukemia” (Eur J Med Chem, 2016).

pIC50: −log10 of the molar value.

For data set [1], the target named is Receptor-type tyrosine-protein kinase FLT3 (Homo sapiens, UniProt P36888, D835Y).
Description: Inhibition of human FLT3 D835Y mutant preincubated for 15 mins followed by poly(Glu:Tyr) substrate addition for 30 mins in presence of [gamma-32P]ATP by TR-FRET assay
Data set [2] concerns the target Tyrosine-protein kinase ABL2 (Homo sapiens) (UniProt P42684). In words: Inhibition of human recombinant ARG expressed in sf21 cells assessed as remaining activity at 10 uM preincubated for 15 mins followed by Poly(Glu:Tyr) addition measured after 30 mins in presence of [gamma-32P]ATP by […] assay. A general note: TR-FRET usually uses a lanthanide donor and a delayed reading to cut background.

Data set [3] concerns the target Tyrosine-protein kinase BTK (Homo sapiens) (UniProt Q06187). The data set can be described thus: Inhibition of recombinant human BTK expressed in insect Sf21 cells assessed as remaining activity at 10 uM preincubated for 15 mins followed by poly(Glu:Tyr) substrate addition for 30 mins in presence of [gamma-32P]ATP by […] assay.
For data set [4], the target named is Vascular endothelial growth factor receptor 1 (Homo sapiens) (UniProt P17948). The data set can be described thus: Inhibition of recombinant human FLT1 expressed in insect Sf21 cells assessed as remaining activity at 10 uM preincubated for 15 mins followed by poly(Glu:Tyr) substrate addition for 30 mins in presence of [gamma-32P]ATP by […] assay.
Sequence of Vascular endothelial growth factor receptor 1 (Homo sapiens) (P17948 whole entry): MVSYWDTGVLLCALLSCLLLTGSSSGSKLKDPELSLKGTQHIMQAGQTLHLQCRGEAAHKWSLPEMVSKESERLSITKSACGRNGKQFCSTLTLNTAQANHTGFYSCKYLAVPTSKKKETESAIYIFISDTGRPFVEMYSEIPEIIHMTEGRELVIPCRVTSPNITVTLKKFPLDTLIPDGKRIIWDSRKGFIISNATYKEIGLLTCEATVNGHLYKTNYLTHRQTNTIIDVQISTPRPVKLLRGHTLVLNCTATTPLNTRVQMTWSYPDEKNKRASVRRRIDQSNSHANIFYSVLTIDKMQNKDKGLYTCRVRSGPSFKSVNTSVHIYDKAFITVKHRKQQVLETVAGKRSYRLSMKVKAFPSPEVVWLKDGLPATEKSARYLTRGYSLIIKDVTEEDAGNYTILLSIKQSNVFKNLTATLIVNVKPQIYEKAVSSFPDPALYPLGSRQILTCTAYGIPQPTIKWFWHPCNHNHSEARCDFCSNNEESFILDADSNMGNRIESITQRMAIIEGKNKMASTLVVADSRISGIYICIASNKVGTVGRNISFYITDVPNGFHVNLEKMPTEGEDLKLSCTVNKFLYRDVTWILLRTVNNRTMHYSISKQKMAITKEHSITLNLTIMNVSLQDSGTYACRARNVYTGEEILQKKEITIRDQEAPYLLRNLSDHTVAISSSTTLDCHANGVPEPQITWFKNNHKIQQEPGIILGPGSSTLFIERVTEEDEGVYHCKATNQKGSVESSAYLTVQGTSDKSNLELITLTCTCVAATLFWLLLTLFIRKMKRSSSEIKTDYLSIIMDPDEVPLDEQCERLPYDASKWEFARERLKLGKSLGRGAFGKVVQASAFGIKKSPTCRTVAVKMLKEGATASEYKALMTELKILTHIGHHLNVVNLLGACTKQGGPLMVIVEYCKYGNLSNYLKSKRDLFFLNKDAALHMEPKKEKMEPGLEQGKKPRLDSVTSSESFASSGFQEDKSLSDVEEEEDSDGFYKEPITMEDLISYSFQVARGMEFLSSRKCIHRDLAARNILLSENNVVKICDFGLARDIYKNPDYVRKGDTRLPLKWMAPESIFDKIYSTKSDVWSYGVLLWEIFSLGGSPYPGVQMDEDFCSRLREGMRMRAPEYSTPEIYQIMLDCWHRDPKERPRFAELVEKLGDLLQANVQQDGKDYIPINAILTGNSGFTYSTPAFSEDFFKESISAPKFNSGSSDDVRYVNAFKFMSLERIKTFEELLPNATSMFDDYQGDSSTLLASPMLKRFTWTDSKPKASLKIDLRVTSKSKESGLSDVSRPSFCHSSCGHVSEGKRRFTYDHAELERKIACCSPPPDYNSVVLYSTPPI
Data set [5] deals with Macrophage colony-stimulating factor 1 receptor (Homo sapiens) (UniProt P07333). In words: Inhibition of recombinant human FMS expressed in insect Sf21 cells assessed as remaining activity at 10 uM preincubated for 15 mins followed by poly(Glu:Tyr) substrate addition for 30 mins in presence of [gamma-32P]ATP by […] assay.
Data set [6] addresses Tyrosine-protein kinase JAK2 (Homo sapiens) (UniProt O60674). In words: Inhibition of recombinant human JAK2 expressed in insect cells assessed as remaining activity at 10 uM preincubated for 15 mins followed by poly(Glu:Tyr) substrate addition for 30 mins in presence of [gamma-32P]ATP by […] assay.
Data set [7] concerns the target Mitogen-activated protein kinase 8 (Homo sapiens) (UniProt P45983). The data set can be described thus: Inhibition of recombinant human JNK1alpha1 expressed in insect Sf21 cells assessed as remaining activity at 10 uM preincubated for 15 mins followed by ATF2 substrate addition for 30 mins in presence of [gamma-32P]ATP by […] assay.
Data set [8] deals with Vascular endothelial growth factor receptor 2 (Homo sapiens) (UniProt P35968). In words: Inhibition of recombinant human KDR expressed in insect Sf21 cells assessed as remaining activity at 10 uM preincubated for 15 mins followed by poly(Glu:Tyr) substrate addition for 30 mins in presence of [gamma-32P]ATP by […] assay.
Sequence of Vascular endothelial growth factor receptor 2 (Homo sapiens) (P35968 whole entry): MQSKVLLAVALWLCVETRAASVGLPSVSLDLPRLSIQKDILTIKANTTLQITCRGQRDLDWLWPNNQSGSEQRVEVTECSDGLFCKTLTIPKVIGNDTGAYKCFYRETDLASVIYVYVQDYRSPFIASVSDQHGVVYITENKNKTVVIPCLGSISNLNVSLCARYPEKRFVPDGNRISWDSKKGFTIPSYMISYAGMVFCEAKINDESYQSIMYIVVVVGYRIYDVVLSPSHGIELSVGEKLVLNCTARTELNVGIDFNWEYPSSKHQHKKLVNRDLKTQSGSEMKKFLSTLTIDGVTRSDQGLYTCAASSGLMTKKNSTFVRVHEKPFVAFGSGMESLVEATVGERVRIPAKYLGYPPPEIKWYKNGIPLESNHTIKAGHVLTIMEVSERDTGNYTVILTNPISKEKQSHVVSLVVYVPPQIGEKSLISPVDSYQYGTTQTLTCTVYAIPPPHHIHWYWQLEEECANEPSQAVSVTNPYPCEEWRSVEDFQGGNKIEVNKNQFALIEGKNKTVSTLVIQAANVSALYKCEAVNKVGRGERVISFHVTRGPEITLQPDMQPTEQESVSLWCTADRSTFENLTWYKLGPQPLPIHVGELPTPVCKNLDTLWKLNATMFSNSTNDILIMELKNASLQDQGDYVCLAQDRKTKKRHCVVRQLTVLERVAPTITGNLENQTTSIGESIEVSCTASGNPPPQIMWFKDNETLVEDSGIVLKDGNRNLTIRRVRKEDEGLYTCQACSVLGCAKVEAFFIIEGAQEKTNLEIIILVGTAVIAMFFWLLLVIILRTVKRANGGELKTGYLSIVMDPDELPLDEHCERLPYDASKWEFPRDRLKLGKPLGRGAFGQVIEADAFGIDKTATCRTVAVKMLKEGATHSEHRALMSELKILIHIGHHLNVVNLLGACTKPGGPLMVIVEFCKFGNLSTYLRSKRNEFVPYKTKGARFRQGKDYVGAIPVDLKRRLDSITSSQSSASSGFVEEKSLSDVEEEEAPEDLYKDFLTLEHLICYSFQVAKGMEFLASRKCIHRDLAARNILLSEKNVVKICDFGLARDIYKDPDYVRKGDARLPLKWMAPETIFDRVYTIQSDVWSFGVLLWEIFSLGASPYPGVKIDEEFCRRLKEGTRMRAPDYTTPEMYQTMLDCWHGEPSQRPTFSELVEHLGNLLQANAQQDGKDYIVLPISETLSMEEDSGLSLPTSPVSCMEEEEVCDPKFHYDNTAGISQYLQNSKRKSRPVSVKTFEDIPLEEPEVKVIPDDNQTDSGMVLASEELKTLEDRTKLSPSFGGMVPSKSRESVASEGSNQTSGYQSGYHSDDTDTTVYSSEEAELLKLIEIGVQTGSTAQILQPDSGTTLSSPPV
Data set [9] deals with cAMP-dependent protein kinase catalytic subunit alpha (Homo sapiens) (UniProt P17612). The data set can be described thus: Inhibition of human recombinant PRKACA expressed in Escherichia coli assessed as remaining activity at 10 uM preincubated for 15 mins followed by PKA substrate peptide addition measured after 30 mins in presence of [gamma-32P]ATP by […] assay.
In data set [10] the target is PI3-kinase p110-alpha/p85-alpha (Homo sapiens) (UniProt P27986+P42336). In words: Inhibition of PI3K P110alpha/p85alpha (unknown origin) assessed as remaining activity at 10 uM in presence of [gamma-32P]ATP by […] assay. The format is protein-complex assay.
Data set [11] addresses Proto-oncogene tyrosine-protein kinase receptor Ret (Homo sapiens) (UniProt P07949). In words: Inhibition of recombinant human RET expressed in insect Sf21 cells assessed as remaining activity at 10 uM preincubated for 15 mins followed by poly(Glu:Tyr) substrate addition for 30 mins in presence of [gamma-32P]ATP by […] assay.
Data set [12] deals with Mitogen-activated protein kinase 11 (Homo sapiens) (UniProt Q15759). In words: Inhibition of human SAPK2b assessed as remaining activity at 10 uM in presence of [gamma-32P]ATP by […] assay.
Sequence of Mitogen-activated protein kinase 11 (Homo sapiens) (Q15759 whole entry): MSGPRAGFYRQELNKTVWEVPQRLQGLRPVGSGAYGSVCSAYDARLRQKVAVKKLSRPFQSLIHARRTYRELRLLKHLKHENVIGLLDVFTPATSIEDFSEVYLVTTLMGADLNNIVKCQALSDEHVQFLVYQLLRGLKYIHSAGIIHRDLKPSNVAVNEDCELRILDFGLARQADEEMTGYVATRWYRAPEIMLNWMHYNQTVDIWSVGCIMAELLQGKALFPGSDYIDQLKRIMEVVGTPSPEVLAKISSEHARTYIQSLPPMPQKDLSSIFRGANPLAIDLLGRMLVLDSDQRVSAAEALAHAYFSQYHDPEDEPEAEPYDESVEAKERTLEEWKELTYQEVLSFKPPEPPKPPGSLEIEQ
Data set [13] deals with Mitogen-activated protein kinase 13 (Homo sapiens) (UniProt O15264). The data set can be described thus: Inhibition of human SAPK4 assessed as remaining activity at 10 uM in presence of [gamma-32P]ATP by […] assay.
Sequence of Mitogen-activated protein kinase 13 (Homo sapiens) (O15264 whole entry): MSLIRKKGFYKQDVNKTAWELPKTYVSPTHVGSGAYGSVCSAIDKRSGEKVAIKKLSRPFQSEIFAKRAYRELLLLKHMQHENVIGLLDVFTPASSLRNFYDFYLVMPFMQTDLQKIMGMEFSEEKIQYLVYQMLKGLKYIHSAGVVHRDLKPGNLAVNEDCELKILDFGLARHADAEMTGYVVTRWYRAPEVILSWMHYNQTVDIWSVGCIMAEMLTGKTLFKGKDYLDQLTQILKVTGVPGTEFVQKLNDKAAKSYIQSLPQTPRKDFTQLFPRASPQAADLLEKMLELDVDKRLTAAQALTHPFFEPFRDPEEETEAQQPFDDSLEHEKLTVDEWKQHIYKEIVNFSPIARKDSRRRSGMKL
The target of data set [14] is Tyrosine-protein kinase ZAP-70 (Homo sapiens) (UniProt P43403). In words: Inhibition of recombinant human ZAP-70 expressed in insect Sf21 cells assessed as remaining activity at 10 uM preincubated for 15 mins followed by poly(Glu:Tyr) substrate addition for 30 mins in presence of [gamma-32P]ATP by […] assay.
The target of data set [15] is Tyrosine-protein kinase ABL1 (Homo sapiens, UniProt P00519). The data set can be described thus: Inhibition of recombinant human ABL1 expressed in insect cells preincubated for 15 mins followed by poly(Glu:Tyr) substrate addition for 30 mins in presence of [gamma-32P]ATP by […] assay.
The nature of data set [16]: Tmax in Sprague-Dawley rat at 30 mg/kg, po by LC/MS/MS analysis. The format is ADME, organism-based. The following applies: in vivo.
A short description of data set [17]: Cmax in Sprague-Dawley rat at 30 mg/kg, po by LC/MS/MS analysis. The format is ADME, organism-based. Further details: dose 30 mg/kg, route oral. The following applies: in vivo.
The nature of data set [18]: cells. The following applies: Homo sapiens, K562, 48 h.
Description: Growth inhibition of human K562 cells after 48 hrs by XTT assay
The nature of data set [19]: cells. The following applies: Homo sapiens, THP-1, 48 h.
Description: Growth inhibition of human THP1 cells expressing wild type FLT-3 after 48 hrs by XTT assay

Sequence of Mitogen-activated protein kinase 8 (Homo sapiens) (P45983 whole entry): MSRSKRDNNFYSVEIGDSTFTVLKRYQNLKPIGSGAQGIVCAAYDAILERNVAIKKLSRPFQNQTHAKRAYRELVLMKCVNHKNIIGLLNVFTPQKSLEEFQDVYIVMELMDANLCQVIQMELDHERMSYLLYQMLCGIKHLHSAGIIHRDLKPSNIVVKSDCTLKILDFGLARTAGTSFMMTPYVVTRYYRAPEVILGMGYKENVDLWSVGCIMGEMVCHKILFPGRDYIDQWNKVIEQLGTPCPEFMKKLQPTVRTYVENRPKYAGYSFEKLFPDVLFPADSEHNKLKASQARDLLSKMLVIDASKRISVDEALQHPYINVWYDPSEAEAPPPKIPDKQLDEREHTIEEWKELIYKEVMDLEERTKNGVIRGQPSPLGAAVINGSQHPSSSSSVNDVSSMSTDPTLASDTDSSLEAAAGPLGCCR
Sequence of Tyrosine-protein kinase JAK2 (Homo sapiens) (O60674 whole entry): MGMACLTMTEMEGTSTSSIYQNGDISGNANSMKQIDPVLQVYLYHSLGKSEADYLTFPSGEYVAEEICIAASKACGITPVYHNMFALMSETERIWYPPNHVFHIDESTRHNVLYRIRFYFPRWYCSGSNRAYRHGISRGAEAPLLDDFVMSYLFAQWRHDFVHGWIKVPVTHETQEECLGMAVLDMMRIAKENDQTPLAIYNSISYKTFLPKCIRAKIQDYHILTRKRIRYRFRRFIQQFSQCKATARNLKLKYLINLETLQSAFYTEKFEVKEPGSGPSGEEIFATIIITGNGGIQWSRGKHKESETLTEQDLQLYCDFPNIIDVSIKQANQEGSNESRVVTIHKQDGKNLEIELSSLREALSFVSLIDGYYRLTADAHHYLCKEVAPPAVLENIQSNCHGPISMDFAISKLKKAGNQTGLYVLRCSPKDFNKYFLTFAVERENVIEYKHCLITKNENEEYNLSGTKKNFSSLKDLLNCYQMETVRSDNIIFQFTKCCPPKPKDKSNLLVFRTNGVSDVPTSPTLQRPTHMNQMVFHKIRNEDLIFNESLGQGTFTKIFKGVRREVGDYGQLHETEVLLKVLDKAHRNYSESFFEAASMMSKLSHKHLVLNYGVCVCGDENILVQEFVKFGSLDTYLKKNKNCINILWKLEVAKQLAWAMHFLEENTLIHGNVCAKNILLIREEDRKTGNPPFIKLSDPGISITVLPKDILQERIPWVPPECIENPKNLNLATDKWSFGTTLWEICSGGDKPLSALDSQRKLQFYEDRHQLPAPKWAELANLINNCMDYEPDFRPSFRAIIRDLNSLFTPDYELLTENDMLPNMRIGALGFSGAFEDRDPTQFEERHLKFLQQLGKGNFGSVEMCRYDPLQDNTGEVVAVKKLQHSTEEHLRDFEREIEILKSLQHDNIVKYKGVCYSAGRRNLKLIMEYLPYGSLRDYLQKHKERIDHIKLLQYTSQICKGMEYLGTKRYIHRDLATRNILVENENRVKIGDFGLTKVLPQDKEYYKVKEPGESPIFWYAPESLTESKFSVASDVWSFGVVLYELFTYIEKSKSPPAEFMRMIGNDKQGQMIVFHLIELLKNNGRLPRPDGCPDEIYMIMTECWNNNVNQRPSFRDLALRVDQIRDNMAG

The pIC50 is −log10 of the IC50, conventionally taken in molar units. As a reminder, the Tmax is the time from dosing to the highest level. What is called Cmax is the highest concentration seen after dosing. For orientation: GI50 means the concentration that inhibits growth by half. As for `CNCCOc1ccc(-c2sc3nc(-c4cccs4)nc(NN4C(=O)C=C(C)C4=O)c3c2C)cc1.Cl`, the figures for the pIC50 in data set [1] and in [15] were 7.99 and 5.54, respectively. In addition, the Activity in [2] worked out at 52%; in data set [3], 83%; in data set [4], 40%; in data set [5], 78%; in data set [6], 99%; in data set [7], 96%. In addition, the Activity is 53% in data set [8]; 112% in data set [9]; 96% in [10]; 42% in data set [11]; 90% in [12]; 93% in data set [13]. For the same compound, in data set [14], the Activity was determined as 101%. Also, the Tmax in data set [16] worked out at 15 min. Further, the Cmax in [17] is 420 ng/mL. The results for the GI50 in data set [18] and in data set [19] were 564 nM and 559 nM, respectively.
